Measured values published in patent US9980943B2, “Methods of treating muscular dystrophy” (BOARD OF REGENTS OF THE NEVADA SYSTEM OF HIGHER EDUCATION, …, priority 2013, dated 2018).

Experiments:
Type in all cases: cell-based, mouse
[1] = test system: β-galactosidase in CMV-LacZ C2C12 myotubes; experiment: CMV-LacZ secondary screen in C2C12 myotubes (β-Gal stabilizing assay); settings: SU9516 analogs, C2C12 CMV-LacZ, N=2
Method in brief: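 Dose-response runs at 0.5–40 μM (0.5, 1, 5, 10, 20, 40 μM; N=2 per point) used a clonal C2C12 line carrying CMV-LacZ. Cells were assayed as myoblasts or as differentiated myotubes, and β-galactosidase levels were read with the FDG fluorogenic substrate.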

[2] = test system: α7 integrin (LacZ reporter in α7+/LacZ myotubes); experiment: Myotube α7 integrin FDG assay (Burkin assay in myotubes, 96-well); settings: SU9516 analogs, 96-well, N=3-6
[3] = test system: α7 integrin (LacZ reporter in α7βgal+/− myoblasts); experiment: Myoblast α7+/LacZ integrin FDG assay (Burkin assay in myoblasts, 96-well); settings: SU9516 analogs, 96-well, N=3-6
[4] = test system: β-galactosidase in CMV-LacZ C2C12 myoblasts; experiment: CMV-LacZ secondary screen in C2C12 myoblasts (β-Gal stabilizing assay); settings: SU9516 analogs, C2C12 CMV-LacZ, N=2
Method in brief: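 C2C12 myoblasts stably carrying a linearized CMV-driven LacZ construct, clone chosen by β-gal level in the myoblast FDG assay. Compounds tested in 96-well dose-response at 0.5, 1, 5, 10, 20 and 40 μM, N=2 replicates per point, to detect β-gal stabilization.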

Structure (SMILES) | CMV-LACZ in Myotubes, value relative to DMSO ([1]; 0.5 uM) | CMV-LACZ in Myotubes, value relative to DMSO ([1]; 1 uM) | CMV-LACZ in Myotubes, value relative to DMSO ([1]; 5 uM) | CMV-LACZ in Myotubes, value relative to DMSO ([1]; 10 uM) | CMV-LACZ in Myotubes, value relative to DMSO ([1]; 20 uM) | CMV-LACZ in Myotubes, value relative to DMSO ([1]; 40 uM) | Burkin Assay in Myotubes, value relative to DMSO ([2]; 0.5 uM) | Burkin Assay in Myotubes, value relative to DMSO ([2]; 1 uM) | Burkin Assay in Myotubes, value relative to DMSO ([2]; 5 uM) | Burkin Assay in Myotubes, value relative to DMSO ([2]; 10 uM) | Burkin Assay in Myotubes, value relative to DMSO ([2]; 20 uM) | Burkin Assay in Myotubes, value relative to DMSO ([2]; 40 uM) | Burkin Assay in Myoblasts, value relative to DMSO ([3]; 0.5 uM) | Burkin Assay in Myoblasts, value relative to DMSO ([3]; 1 uM) | Burkin Assay in Myoblasts, value relative to DMSO ([3]; 5 uM) | Burkin Assay in Myoblasts, value relative to DMSO ([3]; 10 uM) | Burkin Assay in Myoblasts, value relative to DMSO ([3]; 20 uM) | Burkin Assay in Myoblasts, value relative to DMSO ([3]; 40 uM) | CMV-LACZ in Myoblasts, value relative to DMSO ([4]; 0.5 uM) | CMV-LACZ in Myoblasts, value relative to DMSO ([4]; 5 uM) | also measured
CCN(CC)CCNC(=O)c1c(C)[nH]c(/C=C2\C(=O)Nc3ccc(F)cc32)c1C [NCGC00164631-04] | 1.1336 | 0.9164 | 0.8803 | 0.3804 | 0.6490 | 0.6690 | 0.9761 | 0.9998 | 0.7739 | 0.2132 | 0.08218 | 0.08093 | 1.023 | 1.011 | 0.529 | 0.08696 | 0.01476 | 0.01361 | 0.8225 | 0.6842 | CMV-LACZ in Myoblasts, value relative to DMSO ([4]; 10 uM): 0.4405; CMV-LACZ in Myoblasts, value relative to DMSO ([4]; 20 uM): 0.2323; CMV-LACZ in Myoblasts, value relative to DMSO ([4]; 40 uM): 0.1827
O=C1C(c2c(O)[nH]c3ccccc23)=Nc2ccccc21 [NCGC00179302-02] | 0.9618 | 0.9736 | 1.1533 | 0.9196 | 1.0030 | 1.1410 | 0.9349 | 0.9377 | 0.8181 | 0.7913 | 0.682 | 0.6871 | 1.061 | 1.0859 | 0.606 | 0.7163 | 0.843 | 0.8067 | 1.1867 | 2.4679 | CMV-LACZ in Myoblasts, value relative to DMSO ([4]; 10 uM): 1.6628; CMV-LACZ in Myoblasts, value relative to DMSO ([4]; 20 uM): 1.0247; CMV-LACZ in Myoblasts, value relative to DMSO ([4]; 40 uM): 1.2873
Cc1[nH]c(C=C2C(=O)Nc3ccccc32)c(C)c1CCC(=O)O [NCGC00241113-01] | 0.8627 | 1.3227 | 0.9410 | 1.0724 | 0.9790 | 0.9520 | 1.078 | 1.105 | 0.8489 | 0.7678 | 0.7458 | 0.6312 | 1.011 | 1.057 | 0.9062 | 0.8662 | 0.9594 | 0.9168 | 1.4142 | 1.1634 | CMV-LACZ in Myoblasts, value relative to DMSO ([4]; 10 uM): 1.1352; CMV-LACZ in Myoblasts, value relative to DMSO ([4]; 20 uM): 2.7827; CMV-LACZ in Myoblasts, value relative to DMSO ([4]; 40 uM): 3.3097
